The results in this text go back to patent US20040029908A1, “Tricyclo compounds, a process for their production and a pharmaceutical composition containing the same” (FUJISAWA PHARMACEUTICAL CO., LTD., priority 1984, published 2004).

In brackets after ≈: the same amount, converted by molar mass.

In one series the test system is ddY mice. Description: Acute toxicities in ddY mice by intraperitoneal injection. Format: in vivo.
Series [1] has as its system Aspergillus fumigatus IFO 5840. As to the kind of experiment: Antimicrobial activity, serial agar dilution method in Sabouraud agar. The format is cell-based. As to conditions: IFO5840, 30° C., 24 hours. As to the method:
(§1) Antimicrobial activities of the tricyclo compounds (I) against various fungi were determined by a serial agar dilution method in a Sabouraud agar. Minimum inhibitory concentrations (MIC) were expressed in terms of μg/ml after incubation at 30° C. for 24 hours.

Series [2] can be described thus: Solubility (physical and chemical properties). The format is physicochemical.
The test system of series [3] is mouse MLR (C57BL/6 responder cells, mitomycin C treated BALB/C stimulator cells). Description: Suppression of in vitro Mixed Lymphocyte Reaction (MLR), 3H-thymidine uptake. As to conditions: for IC50: Lymphocyte, mouse MLR, 68 hours, 3H-thymidine. The format is cell-based. As to the method: The MLR test was performed in microtiter plates, with each well containing 5 ×10^5 C57BL/6 responder cells (H-2^b ), 5 ×10^5 mitomycin C treated (25μg/ml mitomycin C at 37° C. for 30 minutes and washed three times with RPMI 1640 medium) BALB/C stimulator cells (H-2^d) in 0.2 ml RPMI 1640 medium supplemented with 10% fetal calf serum, 2mM sodium hydrogen carbonate, penicillin (50 unit/ml) and streptomycin (50 μg/ml) . The cells were incubated at 37 ° C. in humidified atmosphere of 5% carbon dioxide and 95% of air for 68 hours and pulsed with ^3H-thymidine (0.5 μCi) 4 hours before the cells were collected. The object compound of this invention was dissolved in ethanol and further diluted in RPMI 1640 medium and added to the cultures to give final concentrations of 0.1 μg/ml or less.

The next series concerns Fusarium oxysporum. As to the kind of experiment: Antimicrobial activity, serial agar dilution method in Sabouraud agar. Format: cell-based. Particulars: 30° C., 24 hours. As to the method:
as §1
A general note: In agar dilution the substance is mixed into plates at graded concentrations.

Where [4] appears, read: hexane (n-hexane), petroleum ether.
The mark [5] stands for this setting: methanol, ethanol, acetone, ethyl acetate, chloroform, diethyl ether and benzene.
Where [6] appears, read: ddY mice, intraperitoneal injection.

As usually defined, the MIC is the lowest concentration that inhibits growth of the organism. Lower therefore signals inhibition by little substance. The term IC50 denotes the point on the concentration scale where inhibition reaches its midpoint. Low values mean higher potency, high ones lower potency. Take `CCC1/C=C(\C)CC(C)CC(OC)C2OC(O)(C(=O)C(=O)N3CCCCC3C(=O)OC(/C(C)=C/C3CCC(O)C(OC)C3)C(C)C(O)CC1=O)C(C)CC2OC` (stereo not shown) [FR-900520, 17-Ethyl-1,14-dihydroxy-12-[2-(4-hydroxy-3-methoxycyclohexyl)-1-methylvinyl)-23,25-dimethoxy-13,19,21,27-tetramethyl-11,28-dioxa-4-azatricyclo-[^22.3.1.0^4,^9) octacos-18-ene-2,3,10,16-tetraone]: the “the dead at dose of 100 mg/kg” value in the series on ddY mice (mouse, in vivo, ip) is “could not be observed”. Further, 0.1 µg/mL (≈ 0.126 µM) was the least that counted as inhibitory in series [1] (MIC). The Solubility result is “Sparingly Soluble” in series [2] (setting [4]), “Soluble” in series [2] (setting [5]) and “Insoluble” in series [2] (water). The “Radioactivities (mean C.P.M. ± S.E.)” value in series [3] (0.25 ng/ml) is reported as 14987 ± 1786 C.P.M; in series [3] (0.500 ng/ml) it was 9434 ± 1546 C.P.M; in series [3] (1 ng/ml) it was 2744 ± 527 C.P.M; in series [3] (10 ng/ml), 515 ± 55 C.P.M; in series [3] (100 ng/ml) it was 175 ± 16 C.P.M. Besides, the “Suppression (%)” value in series [3] (0.25 ng/ml) stood at 35.1%; in series [3] (0.500 ng/ml) it was 59.2%; in series [3] (1 ng/ml), 88.1%; in series [3] (10 ng/ml), 97.8%; in series [3] (100 ng/ml) it was 99.2%. This compound showed an IC50 in series [3] of 0.00038 µg/mL (≈ 0.00048 µM).
On to `CO[C@H]1C[C@@H](C)C/C(C)=C/[C@@H](C)C(=O)C[C@H](O)[C@@H](C)[C@@H](/C(C)=C/[C@@H]2CC[C@@H](O)[C@H](OC)C2)OC(=O)[C@@H]2CCCCN2C(=O)C(=O)[C@]2(O)O[C@H]1[C@@H](OC)C[C@H]2C` [FR-900523], for which the “the dead at dose of 100 mg/kg” value in the series on ddY mice (setting [6]) is reported as “could not be observed”. In series [1], this compound came in with an MIC of 0.3 µg/mL (≈ 0.386 µM). The Solubility entry in series [2] (setting [4]) is given as “Sparingly Soluble”; in series [2] (setting [5]), “Soluble”; in series [2] (water), “Insoluble”. In addition, the “Radioactivities (mean C.P.M. ± S.E.)” value in series [3] (0.25 ng/ml) is listed as 17721 ± 1083 C.P.M; in series [3] (0.500 ng/ml), 11624 ± 395 C.P.M; in series [3] (1 ng/ml), 5600 ± 399 C.P.M; in series [3] (10 ng/ml), 156 ± 37 C.P.M; in series [3] (100 ng/ml), 25 ± 12 C.P.M. Moreover, the “Suppression (%)” value in series [3] (0.25 ng/ml) was found to be 23.3%; in series [3] (0.500 ng/ml), 49.7%; in series [3] (1 ng/ml) it was 75.8%; in series [3] (10 ng/ml), 99.3%; in series [3] (100 ng/ml), 99.9%. In series [3], this compound gave an IC50 of 0.0005 µg/mL (≈ 0.000643 µM).
For the compound `C=CC[C@@H]1/C=C(\C)C[C@H](C)C[C@H](OC)[C@H]2O[C@@](O)(C(=O)C(=O)N3CCC[C@H]3C(=O)O[C@H](/C(C)=C/[C@@H]3CC[C@@H](O)[C@H](OC)C3)[C@H](C)[C@@H](O)CC1=O)[C@H](C)C[C@@H]2OC` [FR-900525], the “the dead at dose of 100 mg/kg” value in the series with ddY mice (setting [6]) is recorded as “could not be observed”. Besides, the results for the minimal inhibitory concentration (MIC) (against Fusarium oxysporum; in series [1]) were 1 µg/mL (≈ 1.27 µM) and 0.5 µg/mL (≈ 0.633 µM), respectively. Further, the values for the Solubility result in series [2] (setting [4]), in series [2] (setting [5]) and in series [2] (water) were “Sparingly Soluble”, “Soluble” and “Insoluble”, respectively. Moreover, the “Radioactivities (mean C.P.M. ± S.E.)” value was 10103 ± 421 C.P.M in series [3] (1.2 ng/ml); 3564 ± 512 C.P.M in series [3] (2.5 ng/ml); 828 ± 369 C.P.M in series [3] (5 ng/ml); 372 ± 32 C.P.M in series [3] (10 ng/ml); 469 ± 56 C.P.M in series [3] (100 ng/ml). Besides, the “Suppression (%)” value is 35.8% in series [3] (1.2 ng/ml); 77.4% in series [3] (2.5 ng/ml); 94.7% in series [3] (5 ng/ml); 97.6% in series [3] (10 ng/ml); 97.0% in series [3] (100 ng/ml). The compound further yielded an IC50 in series [3] of 0.00155 µg/mL (≈ 0.00196 µM).
